Assay results taken from publication PMC10815238, “New N-Terminal Fatty-Acid-Modified Melittin Analogs with Potent Biological Activity” (International Journal of Molecular Sciences, 2024).

How the values were obtained:
[1] = Hydrophobicity assay (RP-HPLC retention time); assay type: physicochemical; settings: chromatographic, ChromCore120 C18 column 4.6 x 250 mm 5 μm; 0.1 mg/mL in deionized water; A 0.1% TFA in water, B 0.1% TFA in acetonitrile; 5% B to 90% B over 30 min; 1 mL/min; UV 220 nm; three independent experiments
Text: The hydrophobicity, amphipathicity, and positive charge distribution of lipopeptides are crucial for their antimicrobial activities. Among these, hydrophobicity has been deemed essential for promoting a hydrophobic interaction with the lipid bilayer, leading to membrane disruption, cytoplasm leakage, and eventual cell death. Lipopeptides with different peptide sequences and chain lengths usually show different hydrophobicities, generating different RTs in the RP-HPLC analysis. The more hydrophobic the lipopeptide, the longer the RT on the column.
Each MDL was dissolved and diluted to 0.1 mg/mL in deionized water (obtained in-house) and then subjected to RP-HPLC on a ChromCore120 C18 column (4.6 × 250 mm, 5 μm) (NanoChrom, Suzhou, China) using 0.1% trifluoroacetic acid (TFA) (Macklin, Shanghai, China) in water as solvent A and 0.1% TFA in acetonitrile (Merck, Darmstadt, Germany) as solvent B. The elution gradient was as follows: 5% B to 90% B over 30 min, 90% B maintained for 2 min, and 90% B to 5% B over 1 min. The flow rate was 1 mL/min and measurements were taken at 220 nm. The retention time was recorded for each MDL.

[2] = CD measurements of secondary structure; assay type: physicochemical; settings: 0.5 mg/mL, 25 °C
Description: The CD spectra of the MDLs were measured at 25 °C on a Chirascan spectrometer (Applied Photophysics, Surrey, UK) using a quartz cell with a 1.0 mm path length, recording from 180 to 260 nm. A scanning speed of 50 nm/min was used and the bandwidth was 1 nm. The optical path and slit width were 0.1 cm and 0.1 nm, respectively. […], 50% TFE (Macklin, Shanghai, China) was used to mimic the hydrophobic condition of the microbial membrane, and 25 mM SDS (Macklin, Shanghai, China) micelles were used to mimic the negatively charged prokaryotic membrane. The observed ellipticity was converted to molar ellipticity using the following equation: θ=θobs(MRW/10×c×l) where [θ] is the molar ellipticity (deg·cm^2·dmol^−1), θobs is the observed ellipticity corrected for the buffer at a given wavelength (mdeg), MRW is the mean residual molecular weight (molecular weight/number of amino acids), c is the peptide concentration (mg/mL), and l is the path length (cm). Assuming lipopeptides were a two-state model, the percentage in the α-helix structure of the MDLs was calculated using the following equation: α-helical content=−([θ]222 +2000)/30,000×100%

E. coli ATCC 25922 = assay: Salt sensitivity (MIC in the presence of physiological salts); assay type: cell-based, Escherichia coli; design: key to MIC, NaCl / MIC, KCl / MIC, MgCl2: MIC in μg/mL (two-fold dilutions 256 to 0.25 μg/mL); settings: for MIC, MgCl2: 1 mM MgCl2, unit not given in Table 4; for MIC, FeCl3: 4 mM FeCl3, unit not given in Table 4; for MIC, KCl: 4.5 mM KCl; for MIC, KCl / MIC, NaCl: unit not given in Table 4; for MIC, NaCl: 150 mM NaCl; for MIC, Control: no added salt, unit not given in Table 4 (Table 3 MIC in μg/mL)
Description: (§1) MIC was determined using the broth microdilution method with minor modification. In brief, bacteria (S. aureus ATCC 43300, E. faecalis ATCC 29212, E. coli ATCC 25922, P. aeruginosa ATCC 27853, L. monocytogenes CVCC 3764, B. cereus CVCC 4101, S. Castellani CGMCC 1.1869, and the multidrug-resistant E. coli strain) were cultured in nutrient broth (NB) medium (Macklin, Shanghai, China) to the logarithmic phase and diluted to 1 × 10^6 colony forming units (CFUs)/mL. The MDLs were dissolved to a final concentration of 256~0.25 μg/mL in NB medium using two-fold dilutions. A total of 50 μL of different concentrations of the MDL solutions and an equal volume of bacterial suspension were added to a 96-well plate, which was then incubated at 37 °C for 18 h. The minimum concentrations of the MDLs with no visible growth of bacteria were defined as the corresponding MICs. Media containing bacteria without the MDLs were set as the negative control. Each measurement was performed independently three times.
(§2) This was carried out in triplicate and tested at least twice.

S. aureus ATCC 43300 = assay: as above; assay type: cell-based, Staphylococcus aureus; design: key: MIC in μg/mL (two-fold dilutions 256 to 0.25 μg/mL); settings: for MIC, MgCl2: 1 mM MgCl2, unit not given in Table 4; for MIC, FeCl3: 4 mM FeCl3, unit not given in Table 4; for MIC, KCl: 4.5 mM KCl; for MIC, KCl / MIC, NaCl: unit not given in Table 4; for MIC, NaCl: 150 mM NaCl; for MIC, Control: no added salt, unit not given in Table 4 (Table 3 MIC in μg/mL)
Description: as §1, §2

| SMILES | RT, Min (RP-HPLC retention time, measure of hydrophobicity) [1] [min] | α-Helix, % ([2]; 25 mM SDS) [%] | β-Fold, % ([2]; 25 mM SDS) [%] | α-Helix, % ([2]; 50% TFE) [%] | β-Fold, % ([2]; 50% TFE) [%] | α-Helix, % ([2]; PBS Buffer) [%] | β-Fold, % ([2]; PBS Buffer) [%] | MIC, MgCl2 (E. coli ATCC 25922) | MIC, FeCl3 (E. coli ATCC 25922) | MIC, KCl (E. coli ATCC 25922) | MIC, NaCl (E. coli ATCC 25922) | MIC, Control (E. coli ATCC 25922) | MIC, MgCl2 (S. aureus ATCC 43300) | MIC, FeCl3 (S. aureus ATCC 43300) | MIC, KCl (S. aureus ATCC 43300) | MIC, NaCl (S. aureus ATCC 43300) | MIC, Control (S. aureus ATCC 43300) |
| --- | --- | --- | --- | --- | --- | --- | --- | --- | --- | --- | --- | --- | --- | --- | --- | --- | --- |
| CCCCCCCCCCCCCC(=O)NCC(=O)N[C@H](C(=O)NCC(=O)N[C@@H](C)C(=O)N[C@H](C(=O)N[C@@H](CC(C)C)C(=O)N[C@@H](CCCCN)C(=O)N[C@H](C(=O)N[C@@H](CC(C)C)C(=O)N[C@H](C(=O)N[C@H](C(=O)NCC(=O)N[C@@H](CC(C)C)C(=O)N1CCC[C@H]1C(=O)N[C@@H](C)C(=O)N[C@@H](CC(C)C)C(=O)N[C@H](C(=O)N[C@@H](CO)C(=O)N[C@@H](Cc1c[nH]c2ccccc12)C(=O)N[C@H](C(=O)N[C@@H](CCCCN)C(=O)N[C@@H](CCCNC(=N)N)C(=O)N[C@@H](CCCCN)C(=O)N[C@@H](CCCNC(=N)N)C(=O)N[C@@H](CCC(N)=O)C(=O)N[C@@H](CCC(N)=O)C(N)=O)[C@@H](C)CC)[C@@H](C)CC)[C@@H](C)O)[C@@H](C)O)C(C)C)C(C)C)[C@@H](C)CC [Peptide C14-Mel] | 25.621 ± 0.002 | 15.5 | 31.7 | 16 | 25.2 | 12 | 31 | 256 | 256 | 64 | 128 | 32 | 256 | 256 | 64 | 64 | 32 |
| CC[C@H](C)[C@H](NC(=O)CNC(C)=O)C(=O)NCC(=O)N[C@@H](C)C(=O)N[C@H](C(=O)N[C@@H](CC(C)C)C(=O)N[C@@H](CCCCN)C(=O)N[C@H](C(=O)N[C@@H](CC(C)C)C(=O)N[C@H](C(=O)N[C@H](C(=O)NCC(=O)N[C@@H](CC(C)C)C(=O)N1CCC[C@H]1C(=O)N[C@@H](C)C(=O)N[C@@H](CC(C)C)C(=O)N[C@H](C(=O)N[C@@H](CO)C(=O)N[C@@H](Cc1c[nH]c2ccccc12)C(=O)N[C@H](C(=O)N[C@@H](CCCCN)C(=O)N[C@@H](CCCNC(=N)N)C(=O)N[C@@H](CCCCN)C(=O)N[C@@H](CCCNC(=N)N)C(=O)N[C@@H](CCC(N)=O)C(=O)N[C@@H](CCC(N)=O)C(N)=O)[C@@H](C)CC)[C@@H](C)CC)[C@@H](C)O)[C@@H](C)O)C(C)C)C(C)C [Peptide C2-Mel] | 12.247 ± 0.021 | 20.9 | 19.9 | 26.5 | 17.8 | 6 | 32.8 | 32 | 32 | 16 | 16 | – | 16 | 16 | 4 | 4 | 4 |
| CCCCCC(=O)NCC(=O)N[C@H](C(=O)NCC(=O)N[C@@H](C)C(=O)N[C@H](C(=O)N[C@@H](CC(C)C)C(=O)N[C@@H](CCCCN)C(=O)N[C@H](C(=O)N[C@@H](CC(C)C)C(=O)N[C@H](C(=O)N[C@H](C(=O)NCC(=O)N[C@@H](CC(C)C)C(=O)N1CCC[C@H]1C(=O)N[C@@H](C)C(=O)N[C@@H](CC(C)C)C(=O)N[C@H](C(=O)N[C@@H](CO)C(=O)N[C@@H](Cc1c[nH]c2ccccc12)C(=O)N[C@H](C(=O)N[C@@H](CCCCN)C(=O)N[C@@H](CCCNC(=N)N)C(=O)N[C@@H](CCCCN)C(=O)N[C@@H](CCCNC(=N)N)C(=O)N[C@@H](CCC(N)=O)C(=O)N[C@@H](CCC(N)=O)C(N)=O)[C@@H](C)CC)[C@@H](C)CC)[C@@H](C)O)[C@@H](C)O)C(C)C)C(C)C)[C@@H](C)CC [Peptide C6-Mel] | 15.567 ± 0.006 | 18.4 | – | 22.4 | – | 6.5 | – | 16 | 16 | 8 | 4 | 4 | 8 | 8 | 2 | – | – |
| CCCCCCCCCCCC(=O)NCC(=O)N[C@H](C(=O)NCC(=O)N[C@@H](C)C(=O)N[C@H](C(=O)N[C@@H](CC(C)C)C(=O)N[C@@H](CCCCN)C(=O)N[C@H](C(=O)N[C@@H](CC(C)C)C(=O)N[C@H](C(=O)N[C@H](C(=O)NCC(=O)N[C@@H](CC(C)C)C(=O)N1CCC[C@H]1C(=O)N[C@@H](C)C(=O)N[C@@H](CC(C)C)C(=O)N[C@H](C(=O)N[C@@H](CO)C(=O)N[C@@H](Cc1c[nH]c2ccccc12)C(=O)N[C@H](C(=O)N[C@@H](CCCCN)C(=O)N[C@@H](CCCNC(=N)N)C(=O)N[C@@H](CCCCN)C(=O)N[C@@H](CCCNC(=N)N)C(=O)N[C@@H](CCC(N)=O)C(=O)N[C@@H](CCC(N)=O)C(N)=O)[C@@H](C)CC)[C@@H](C)CC)[C@@H](C)O)[C@@H](C)O)C(C)C)C(C)C)[C@@H](C)CC [Peptide C12-Mel] | 23.344 ± 0.004 | 15.9 | 29.5 | 19 | 21.5 | 11.5 | 31.3 | 128 | 128 | 32 | 32 | – | 64 | 64 | 32 | 16 | 8 |
